According to PMC8342488, “Characterization of a triad of genes in cyanophage S-2L sufficient to replace adenine by 2-aminoadenine in bacterial DNA” (Nature Communications, 2021):

Columns and labels:
[1] = target: T1, S-2L PurZ (Cyanophage S-2L, UniProt A0A7U3TBV6); experiment: HPLC product analysis; type: biochemical; settings: dGMP, 10 mM aspartate, 5 mM MgSO4, pH 7.5, 37 °C
T1 construct: E. coli codon-optimized synthetic gene, N-terminal 14-His tag removed by TEV, expressed in E. coli; dimer

[2] = target: T2, S-2L MazZ (Cyanophage S-2L, UniProt A0A7U3TBV3); experiment: HPLC product analysis; type: biochemical; settings: 100 uM nucleotide, 5 mM MgCl2, pH 7.5, 37 °C
T2 construct: gene S2L_23; E. coli codon-optimized synthetic gene, N-terminal 14-His tag removed by TEV, expressed in E. coli; homotetramer

[3] = target: T1, S-2L PurZ; experiment: X-ray crystal structure, […] Å; type: binding; settings: co-crystallised with dGMP, soaked with dATP; pH 7
[4] = target: T2, S-2L MazZ; experiment: X-ray crystal structure, […] Å; type: binding; settings: crystallised with dGTP; dephosphorylation product dGDP; three Mn2+ ions; pH 8.5
[5] = target: S-2L MazZ (MazG-like (d)GTP-specific nucleotide diphosphohydrolase of cyanophage S-2L) (cyanophage S-2L); experiment: crystal structure; S-2L MazZ with the dGTP dephosphorylation product (dGDP) and Mn2+, 1.43 Å; crystals grown at 18 °C in 200 mM Li2SO4, 1.26 M (NH4)2SO4, 100 mM Tris pH 8.5; tetramer in the asymmetric unit
[6] = target: the molecule itself; experiment: crystal structure; S-2L PurZ with dGMP and dATP, 1.7 Å; crystals grown at 4 °C in 15% Tacsimate, 2% PEG 3350, 100 mM HEPES pH 7; dimer reconstructed through crystallographic symmetry

Nc1ncnc2c1ncn2[C@@H]1O[C@H](COP(=O)(O)OP(=O)(O)OP(=O)(O)O)[C@@H](O)[C@H]1O [ATP]
HPLC product analysis ([1]; 2 mM nucleotides): it can act as a dATPase, but stays functional after dATP pool depletion by using ATP

Nc1nc2c(ncn2[C@@H]2O[C@H](COP(=O)(O)OP(=O)(O)OP(=O)(O)O)[C@@H](O)[C@H]2O)c(=O)[nH]1 [GTP]
HPLC product analysis [2]: Its preferential substrates, dGTP and GTP, are rapidly dephosphorylated to dGMP and GMP

N[C@@H](CC(=O)O)C(=O)O [aspartic acid]
HPLC product analysis ([1]; dATP/ATP): reaction catalyzed by PurZ in presence of dGMP, Asp and dATP/ATP

Nc1ncnc2c1ncn2[C@H]1C[C@H](O)[C@@H](COP(=O)(O)OP(=O)(O)OP(=O)(O)O)O1 [dATP]
X-ray crystal structure, 1.7 Å [3]: We crystallized S-2L PurZ with two of its substrates, dGMP and dATP

Nc1nc2c(ncn2[C@H]2C[C@H](O)[C@@H](COP(=O)(O)OP(=O)(O)O)O2)c(=O)[nH]1 [dGDP]
X-ray crystal structure, 1.43 Å [4]: The dGDP intermediate observed in crystallo is almost completely buried inside the enzyme

Nc1nc2c(ncn2[C@H]2C[C@H](O)[C@@H](COP(=O)(O)O)O2)c(=O)[nH]1 [dGMP]
X-ray crystal structure, 1.7 Å [3]: We crystallized S-2L PurZ with two of its substrates, dGMP and dATP

Nc1nc2c(ncn2[C@H]2C[C@H](O)[C@@H](COP(=O)(O)OP(=O)(O)OP(=O)(O)O)O2)c(=O)[nH]1 [dGTP]
HPLC product analysis [2]: Its preferential substrates, dGTP and GTP, are rapidly dephosphorylated to dGMP and GMP

S-2L MazZ (MazG-like (d)GTP-specific nucleotide diphosphohydrolase of cyanophage S-2L) (enzyme)
stoichiometry N [5]: 4

B1: S-2L PurZ (homologue of adenylosuccinate synthetase of cyanophage S-2L) (enzyme)
chain: MLSIPPYYRVKNCNLIVDCQYGSTGKGLLAGYLGALEAPQVLCMAPSPNAGHTLVEEDGTARVHKMLPLGITSPSLERIYLGPGSVIDMDRLLEEYLALPRQVELWVHQNAAVVLQEHRDEEAAGGLAPGSTRSGAGSAFIAKIRRRPGTLLFGEAVRDHPLHGVVRVVDTRTAQDMLFRTRSIQAEGCQGYSLSVHHGAYPYCTARDVTTAQLIADCGLPYDVARIARVVGSMRTYPIRVANRPEAGEWSGPCYPDSVECQFADLGLEQEYTTVTKLPRRIFTFSAIQAHEAIAQNGVDEVFLNFAQYPPSLGALEDILDAIEARAEVTYVGFGPKVTDVYHTPTRAELEGLYARYRR
notes: PurZ of cyanophage S-2L, product of the gene purZ; synthetic gene optimised for E. coli; Crystallised with dGMP and soaked with dATP; The dimer is made by crystallographic symmetry; source: E. coli BL21-CodonPlus (DE3)-RIPL, purified (Ni-NTA, TEV cleavage, Superdex 200); not shown: His14, N-terminal, cleaved
stoichiometry N [6]: 2
